Measurements published in paper PMC12090182, “Repurposing of the RIPK1-Selective Benzo[1,4]oxazepin-4-one Scaffold for the Development of a Type III LIMK1/2 Inhibitor” (ACS Chemical Biology, 2025).

Columns and labels:
Assay type in all cases: cell-based
Details in all cases: HEK-293T; 1 μM inhibitor, HEK293T cells
MAST3 = MAST3 (Homo sapiens, UniProt O60307)
In short: (§1)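 Steps: FuGene HD/DNA complexation 30 min; HEK293T addition; 20 h expression; Tracer K10 plus 1 μM inhibitor; substrate; luminescence at 450 nm and 610 nm. Output is per-kinase occupancy.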

IGF1R = IGF1R (Homo sapiens, UniProt P08069)
In short: as §1

IRAK3 = IRAK3 (Homo sapiens, UniProt Q9Y616)
In short: as §1

NEK2 = NEK2 (Homo sapiens, UniProt P51955)
In short: as §1

LRRK2 = LRRK2 (Homo sapiens, UniProt Q5S007)
In short: as §1

PRKAA1 = PRKAA1 (Homo sapiens, UniProt Q13131)
In short: as §1

MAP3K12 = MAP3K12 (Homo sapiens, UniProt Q12852)
In short: as §1

PLK3 = PLK3 (Homo sapiens, UniProt Q9H4B4)
In short: as §1

TIE1 = TIE1 (Homo sapiens, UniProt P35590)
In short: as §1

EPHA1 = EPHA1 (Homo sapiens, UniProt P21709)
In short: as §1

PLK4 = PLK4 (Homo sapiens, UniProt O00444)
In short: as §1

NEK3 = NEK3 (Homo sapiens, UniProt P51956)
In short: as §1

CSNK1A1L = CSNK1A1L (Homo sapiens, UniProt Q8N752)
In short: as §1

MAP3K3 = MAP3K3 (Homo sapiens, UniProt Q99759)
In short: as §1

MARK4 = MARK4 (Homo sapiens, UniProt Q96L34)
In short: as §1

CDK4 = CDK4 (Homo sapiens, UniProt P11802)
In short: as §1

ULK1 = ULK1 (Homo sapiens, UniProt O75385)
In short: as §1

RPS6KA2 = RPS6KA2 (Homo sapiens, UniProt Q15349)
In short: as §1

FGFR2 = FGFR2 (Homo sapiens, UniProt P21802)
In short: as §1

FGFR3 = FGFR3 (Homo sapiens, UniProt P22607)
In short: as §1

STK11 = STK11 (Homo sapiens, UniProt Q15831)
In short: as §1

CDK9 = CDK9 (Homo sapiens, UniProt P50750)
In short: as §1

PRKCE = PRKCE (Homo sapiens, UniProt Q02156)
In short: as §1

CDKL2 = CDKL2 (Homo sapiens, UniProt Q92772)
In short: as §1

STK4 = STK4 (Homo sapiens, UniProt Q13043)
In short: as §1

GAK = GAK (Homo sapiens, UniProt O14976)
In short: as §1

CDK7 = CDK7 (Homo sapiens, UniProt P50613)
In short: as §1

CDK18 = CDK18 (Homo sapiens, UniProt Q07002)
In short: as §1

CDK6 = CDK6 (Homo sapiens, UniProt Q00534)
In short: as §1

PRKAA2 = PRKAA2 (Homo sapiens, UniProt P54646)
In short: as §1

TEK = TEK (Homo sapiens, UniProt Q02763)
In short: as §1

MAP3K21 = MAP3K21 (Homo sapiens, UniProt Q5TCX8)
In short: as §1

DYRK1A = DYRK1A (Homo sapiens, UniProt Q13627)
In short: as §1

LATS2 = LATS2 (Homo sapiens, UniProt Q9NRM7)
In short: as §1

NUAK1 = NUAK1 (Homo sapiens, UniProt O60285)
In short: as §1

RPS6KA4 = RPS6KA4 (Homo sapiens, UniProt O75676)
In short: as §1

EPHA7 = EPHA7 (Homo sapiens, UniProt Q15375)
In short: as §1

PLK3, sequence (Q9H4B4 whole entry): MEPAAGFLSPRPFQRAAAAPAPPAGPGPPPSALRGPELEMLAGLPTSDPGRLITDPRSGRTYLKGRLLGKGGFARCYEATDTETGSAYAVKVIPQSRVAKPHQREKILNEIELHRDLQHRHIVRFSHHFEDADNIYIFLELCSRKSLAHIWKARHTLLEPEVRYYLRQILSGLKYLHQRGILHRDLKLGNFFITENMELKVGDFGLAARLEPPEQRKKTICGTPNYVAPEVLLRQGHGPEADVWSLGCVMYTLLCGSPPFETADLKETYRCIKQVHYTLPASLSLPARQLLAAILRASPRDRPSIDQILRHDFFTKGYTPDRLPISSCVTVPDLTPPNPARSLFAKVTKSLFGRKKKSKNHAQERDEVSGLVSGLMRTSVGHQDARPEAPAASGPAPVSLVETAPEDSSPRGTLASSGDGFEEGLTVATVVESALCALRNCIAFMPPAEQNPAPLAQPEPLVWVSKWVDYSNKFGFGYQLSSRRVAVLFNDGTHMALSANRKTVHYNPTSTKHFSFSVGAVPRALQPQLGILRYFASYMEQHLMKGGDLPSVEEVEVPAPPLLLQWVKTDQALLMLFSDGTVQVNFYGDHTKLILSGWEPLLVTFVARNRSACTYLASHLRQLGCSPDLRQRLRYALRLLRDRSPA
CDK4, sequence (P30281 whole entry): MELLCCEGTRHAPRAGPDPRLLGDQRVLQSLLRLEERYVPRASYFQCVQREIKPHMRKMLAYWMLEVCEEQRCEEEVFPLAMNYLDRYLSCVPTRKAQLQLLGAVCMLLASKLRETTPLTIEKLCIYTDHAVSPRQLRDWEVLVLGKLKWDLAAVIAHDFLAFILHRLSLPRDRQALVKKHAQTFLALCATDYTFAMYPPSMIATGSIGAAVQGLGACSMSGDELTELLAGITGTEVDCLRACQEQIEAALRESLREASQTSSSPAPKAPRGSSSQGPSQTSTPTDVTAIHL
CDK4, sequence (P11802 whole entry): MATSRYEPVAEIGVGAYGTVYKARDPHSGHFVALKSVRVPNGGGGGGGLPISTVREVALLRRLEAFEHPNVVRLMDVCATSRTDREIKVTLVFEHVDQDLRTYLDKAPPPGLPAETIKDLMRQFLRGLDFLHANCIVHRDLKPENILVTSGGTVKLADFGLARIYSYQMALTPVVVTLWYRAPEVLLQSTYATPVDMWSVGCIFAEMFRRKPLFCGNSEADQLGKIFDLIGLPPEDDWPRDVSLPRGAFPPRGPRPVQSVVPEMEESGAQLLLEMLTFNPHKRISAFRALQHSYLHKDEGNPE
NEK3, sequence (P51956 whole entry): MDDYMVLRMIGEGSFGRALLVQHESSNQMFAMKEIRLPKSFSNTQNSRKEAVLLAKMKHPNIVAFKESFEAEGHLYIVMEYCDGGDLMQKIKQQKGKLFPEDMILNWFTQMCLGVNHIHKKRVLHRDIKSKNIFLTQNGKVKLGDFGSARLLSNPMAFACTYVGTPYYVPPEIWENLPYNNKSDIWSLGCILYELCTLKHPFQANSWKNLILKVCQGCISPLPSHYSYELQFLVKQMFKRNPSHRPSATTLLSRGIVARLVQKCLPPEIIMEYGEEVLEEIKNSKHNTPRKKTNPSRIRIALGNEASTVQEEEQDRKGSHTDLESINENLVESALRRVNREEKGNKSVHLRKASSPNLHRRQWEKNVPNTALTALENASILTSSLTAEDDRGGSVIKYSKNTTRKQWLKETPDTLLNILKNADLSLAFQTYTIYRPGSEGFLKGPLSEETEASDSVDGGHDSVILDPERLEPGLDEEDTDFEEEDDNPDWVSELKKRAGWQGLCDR
MAST3, sequence (O60307 whole entry): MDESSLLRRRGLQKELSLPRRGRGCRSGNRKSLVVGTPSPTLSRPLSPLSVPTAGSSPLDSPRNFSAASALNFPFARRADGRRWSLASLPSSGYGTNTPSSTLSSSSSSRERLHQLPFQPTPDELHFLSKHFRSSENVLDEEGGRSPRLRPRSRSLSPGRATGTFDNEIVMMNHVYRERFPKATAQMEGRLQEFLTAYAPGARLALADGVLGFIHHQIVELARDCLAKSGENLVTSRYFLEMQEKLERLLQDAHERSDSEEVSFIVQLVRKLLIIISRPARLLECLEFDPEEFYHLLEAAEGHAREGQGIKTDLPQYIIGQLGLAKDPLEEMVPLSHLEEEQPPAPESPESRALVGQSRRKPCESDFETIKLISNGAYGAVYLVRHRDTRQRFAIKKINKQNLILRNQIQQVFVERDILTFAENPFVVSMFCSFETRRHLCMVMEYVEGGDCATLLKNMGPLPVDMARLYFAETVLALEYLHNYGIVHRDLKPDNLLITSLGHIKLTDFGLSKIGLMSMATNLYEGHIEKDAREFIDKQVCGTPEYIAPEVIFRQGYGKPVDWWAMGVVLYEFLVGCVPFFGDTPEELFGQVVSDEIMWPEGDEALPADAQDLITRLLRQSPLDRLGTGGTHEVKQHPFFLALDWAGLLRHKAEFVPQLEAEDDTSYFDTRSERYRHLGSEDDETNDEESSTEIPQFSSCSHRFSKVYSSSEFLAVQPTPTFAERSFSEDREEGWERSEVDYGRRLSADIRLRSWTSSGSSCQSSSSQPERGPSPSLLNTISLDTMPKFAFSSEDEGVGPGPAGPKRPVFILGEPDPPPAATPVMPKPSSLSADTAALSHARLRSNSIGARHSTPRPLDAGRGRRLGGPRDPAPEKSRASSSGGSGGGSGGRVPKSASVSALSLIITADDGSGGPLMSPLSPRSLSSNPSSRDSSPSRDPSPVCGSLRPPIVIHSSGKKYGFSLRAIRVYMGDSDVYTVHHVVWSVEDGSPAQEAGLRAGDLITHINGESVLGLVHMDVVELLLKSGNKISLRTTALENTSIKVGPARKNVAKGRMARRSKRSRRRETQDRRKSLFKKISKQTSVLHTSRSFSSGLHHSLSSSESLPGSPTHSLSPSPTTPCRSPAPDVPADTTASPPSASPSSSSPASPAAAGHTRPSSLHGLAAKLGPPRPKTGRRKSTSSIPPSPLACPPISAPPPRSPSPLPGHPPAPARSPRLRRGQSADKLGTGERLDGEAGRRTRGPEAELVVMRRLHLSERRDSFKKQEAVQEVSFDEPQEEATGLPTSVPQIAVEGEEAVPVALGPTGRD
NUAK1, sequence (O60285 whole entry): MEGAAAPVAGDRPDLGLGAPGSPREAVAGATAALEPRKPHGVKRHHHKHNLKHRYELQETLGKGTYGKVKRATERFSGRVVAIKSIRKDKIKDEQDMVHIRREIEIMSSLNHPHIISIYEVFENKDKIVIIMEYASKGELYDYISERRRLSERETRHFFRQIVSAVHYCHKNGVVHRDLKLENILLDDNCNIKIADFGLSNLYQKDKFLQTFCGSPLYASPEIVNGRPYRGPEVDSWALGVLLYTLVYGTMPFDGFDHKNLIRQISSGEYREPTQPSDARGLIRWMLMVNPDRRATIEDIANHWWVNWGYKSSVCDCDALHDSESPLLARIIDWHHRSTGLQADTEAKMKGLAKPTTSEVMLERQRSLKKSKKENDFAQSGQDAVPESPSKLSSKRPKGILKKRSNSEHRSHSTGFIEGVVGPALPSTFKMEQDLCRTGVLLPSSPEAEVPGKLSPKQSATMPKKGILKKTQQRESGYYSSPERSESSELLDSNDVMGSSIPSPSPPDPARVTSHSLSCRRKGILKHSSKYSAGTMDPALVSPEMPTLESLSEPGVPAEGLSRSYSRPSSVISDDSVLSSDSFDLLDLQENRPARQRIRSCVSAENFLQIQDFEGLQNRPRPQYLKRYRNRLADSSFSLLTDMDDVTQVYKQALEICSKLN
GAK, sequence (O14976 whole entry): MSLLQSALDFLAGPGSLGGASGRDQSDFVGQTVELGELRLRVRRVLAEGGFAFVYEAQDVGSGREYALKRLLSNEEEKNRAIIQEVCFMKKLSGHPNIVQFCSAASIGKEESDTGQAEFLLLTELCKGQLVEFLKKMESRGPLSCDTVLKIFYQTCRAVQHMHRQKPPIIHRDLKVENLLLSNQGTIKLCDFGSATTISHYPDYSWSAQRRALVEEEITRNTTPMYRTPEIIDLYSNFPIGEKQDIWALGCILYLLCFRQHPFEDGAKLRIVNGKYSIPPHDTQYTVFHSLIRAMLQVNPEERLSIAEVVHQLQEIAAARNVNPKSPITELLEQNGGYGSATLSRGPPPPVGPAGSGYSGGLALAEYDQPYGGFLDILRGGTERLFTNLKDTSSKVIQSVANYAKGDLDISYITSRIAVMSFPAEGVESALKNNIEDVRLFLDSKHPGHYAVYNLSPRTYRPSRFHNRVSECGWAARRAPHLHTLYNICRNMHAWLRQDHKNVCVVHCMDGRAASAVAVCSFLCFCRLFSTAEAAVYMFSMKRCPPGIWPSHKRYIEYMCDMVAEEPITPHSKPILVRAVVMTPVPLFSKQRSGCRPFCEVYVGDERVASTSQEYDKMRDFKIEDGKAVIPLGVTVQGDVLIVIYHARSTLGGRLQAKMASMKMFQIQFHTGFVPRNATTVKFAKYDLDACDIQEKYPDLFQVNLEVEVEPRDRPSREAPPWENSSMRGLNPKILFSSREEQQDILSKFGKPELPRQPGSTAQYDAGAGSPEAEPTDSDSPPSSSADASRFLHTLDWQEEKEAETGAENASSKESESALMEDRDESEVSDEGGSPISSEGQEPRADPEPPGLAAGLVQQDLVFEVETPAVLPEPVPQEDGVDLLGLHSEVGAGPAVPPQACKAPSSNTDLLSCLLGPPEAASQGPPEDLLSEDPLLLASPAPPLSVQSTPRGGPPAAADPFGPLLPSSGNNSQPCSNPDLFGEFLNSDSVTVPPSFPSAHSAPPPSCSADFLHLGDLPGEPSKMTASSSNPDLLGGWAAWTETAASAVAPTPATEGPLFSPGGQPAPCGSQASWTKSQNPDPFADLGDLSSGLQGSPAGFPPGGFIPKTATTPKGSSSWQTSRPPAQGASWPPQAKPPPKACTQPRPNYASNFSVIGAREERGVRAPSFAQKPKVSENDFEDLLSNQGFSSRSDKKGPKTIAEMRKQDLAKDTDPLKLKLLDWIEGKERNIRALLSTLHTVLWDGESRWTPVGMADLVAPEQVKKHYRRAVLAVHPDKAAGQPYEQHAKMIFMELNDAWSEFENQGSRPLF

CN1C(=O)[C@@H](N2CCc3c(nn(Cc4ccccc4)c3C(N)=O)C2=O)COc2cc(Cl)ccc21 [Compound 10, (S)-2-benzyl-6-(8-chloro-5-methyl-4-oxo-2,3,4,5-tetrahydrobenzo[b][1,4]oxazepin-3-yl)-7-oxo-4,5,6,7-tetrahydro-2H-pyrazolo[3,4-c]pyridine-3-carboxamide]
receptor occupancy at 1 µM (MAST3): 3.64%
receptor occupancy at 1 µM (IGF1R): -7.01%
receptor occupancy at 1 µM (IRAK3): -5.37%
receptor occupancy at 1 µM (NEK2): -8.89%
receptor occupancy at 1 µM (LRRK2): 7.3%
receptor occupancy at 1 µM (PRKAA1): -3.79%
receptor occupancy at 1 µM (MAP3K12): -2.26%
receptor occupancy at 1 µM (PLK3): 2.41%
receptor occupancy at 1 µM (TIE1): -1.51%
receptor occupancy at 1 µM (EPHA1): 2.07%
receptor occupancy at 1 µM (PLK4): 10.7%
receptor occupancy at 1 µM (NEK3): -12%
receptor occupancy at 1 µM (CSNK1A1L): 10.7%
receptor occupancy at 1 µM (MAP3K3): 5.83%
receptor occupancy at 1 µM (MARK4): 8.31%
receptor occupancy at 1 µM (CDK4): -9.98%
receptor occupancy at 1 µM (ULK1): 4.3%
receptor occupancy at 1 µM (RPS6KA2): -4.28%
receptor occupancy at 1 µM (FGFR2): -6.21%
receptor occupancy at 1 µM (FGFR3): 22.5%
receptor occupancy at 1 µM (STK11): -4.45%
receptor occupancy at 1 µM (CDK9): -4.57%
receptor occupancy at 1 µM (PRKCE): 3.9%
receptor occupancy at 1 µM (CDKL2): -3.58%
receptor occupancy at 1 µM (STK4): -6.3%
receptor occupancy at 1 µM (GAK): 0.954%
receptor occupancy at 1 µM (CDK7): -11.3%
receptor occupancy at 1 µM (CDK18): -5.62%
receptor occupancy at 1 µM (CDK6): -16.9%
receptor occupancy at 1 µM (PRKAA2): 2.71%
receptor occupancy at 1 µM (TEK): 9.13%
receptor occupancy at 1 µM (MAP3K21): -2.72%
receptor occupancy at 1 µM (DYRK1A): -1.01%
receptor occupancy at 1 µM (LATS2): 8.35%
receptor occupancy at 1 µM (NUAK1): -4.45%
receptor occupancy at 1 µM (RPS6KA4): 7.5%
receptor occupancy at 1 µM (EPHA7): -2.24%
